How the values were obtained:
Akt phosphorylation = assay: Akt Phosphorylation Assay (western blot), Panc-1; format: cell-based, human; conditions: at 10 μM, * = activation
Method in brief: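 Panc-1 (KRas G12D) cells were treated with compound at 10 μM final (0.3% DMSO) for 6 h at 37 °C, or with serial dilutions for IC50. Cells were either serum-starved overnight in 0.5% FBS and then stimulated with 1.5 ng/ml EGF for 15 min, or kept in 10% FBS without stimulation. Akt Ser473 phosphorylation in lysates was read by western blot.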

IL6 = assay: IL-6 Quantification Assay (ELISA), LPS-stimulated RAW 264.7; format: cell-based; parameters: inhibition: dose or concentration left out as unconfirmed; conditions: Mus musculus, RAW264.7; read-out: IL-6: % inh.
[1] = tested on: MiaPaca-2 (expressing KRAS G12C mutant); assay: Proliferation Assay (Cell Viability Assay); format: cell-based; conditions: Homo sapiens, MIA PaCa-2; read-out: Proliferation in MiaPaca-2: IC50
Method in brief: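 MiaPaca-2 cells (KRAS G12C) were grown in DMEM-high glucose with 10% FBS, seeded at 2000–5000 cells/well and cultured overnight. Compounds were added at 10 μM final, or as serial dilutions for IC50, in 0.3% DMSO/10% FBS for 2–4 days at 37 °C, 5% CO2. Viability was measured with CellTiter 96 Aqueous One and % inhibition calculated.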

Structure (SMILES)	IC50 [1] [µM]	% inh of Akt phosphorylation in Panc-1 (Akt phosphorylation)	inhibition (IL6) [%]
CO[C@H]1CC[C@H](Nc2nc(-c3nccn3C)nn3cc(-c4ccn(C)n4)c(C(=O)NC4CC4)c23)C1 (racemic) [Compound 182, rac N-Cyclopropyl-4-(((1S,3S)-3-methoxycyclo-pentyl)amino)-2-(1-methyl-1H-imidazol-2-yl)-6-(1-methyl-1H-pyrazol-3-yl)pyrrolo[2,1-f][1,2,4]triazine-5-carboxamide]	> 1	B* (26-49% activation)	25 to 49
Cn1ccnc1-c1nc(O)c2c(-c3ccccc3)c(-c3cccnc3)cn2n1 [Compound 189, 2-(1-Methyl-1H-imidazol-2-yl)-5-phenyl-6-(pyridin-3-yl)pyrrolo[2,1-f][1,2,4]triazin-4-ol]	> 1	B (26-49% inhibition)	0
CO[C@H]1C[C@H](Nc2nc(-c3nccn3C)nn3cc(-c4ccc(CCN)cc4)c(-c4ccccc4)c23)C1.Cl [Compound 207, 6-(4-(2-Aminoethyl)phenyl)-N-((1r,3r)-3-methoxycyclobutyl)-2-(1-methyl-1H-imidazol-2-yl)-5-phenylpyrrolo[2,1-f][1,2,4]triazin-4-amine hydrochloride salt]	> 1	C* (46-84% activation)	75 to 100
CO[C@H]1C[C@H](Nc2nc(-c3nccn3C)nn3cc(-c4cccc(CN)c4)c(-c4ccccc4)c23)C1 [Compound 204, 6-(3-(aminomethyl)phenyl)-N-((1r,3r)-3-methoxycyclobutyl)-2-(1-methyl-1H-imidazol-2-yl)-5-phenylpyrrolo[2,1-f][1,2,4]triazin-4-amine]	> 1	C* (46-84% activation)	75 to 100
COCCNc1nc(-c2nccn2C)nn2cc(-c3cccc(OC)c3Cl)c(C)c12 [Compound 16, 6-(2-Chloro-3-methoxyphenyl)-N-(2-methoxyethyl)-5-methyl-2-(1-methyl-1H-imidazol-2-yl)pyrrolo[2,1-f][1,2,4]triazin-4-amine]	> 1	0 (0% inhibition)	50 to 74
CO[C@H]1CC[C@H](Nc2nc(-c3nccn3C)nn3cc(-c4ccn(C)n4)c(C(=O)NCCN4CCOCC4)c23)C1 (racemic) [Compound 185, rac 4-(((1S,3S)-3-methoxycyclo-pentyl)amino)-2-(1-methyl-1H-imidazol-2-yl)-6-(1-methyl-1H-pyrazol-3-yl)-N-(2-morpholino-ethyl)pyrrolo[2,1-f][1,2,4]triazine-5-carboxamide]	> 1	A (1-25% inhibition)	25 to 49
CO[C@H]1C[C@H](Nc2nc(-c3nccn3C)nn3cc(-c4cccc(OCCN)c4)c(-c4ccccc4)c23)C1 [Compound 205, 6-(3-(2-Aminoethoxy)phenyl)-N-((1r,3r)-3-methoxycyclobutyl)-2-(1-methyl-1H-imidazol-2-yl)-5-phenylpyrrolo[2,1-f][1,2,4]triazin-4-amine]	> 1	C* (46-84% activation)	
CO[C@H]1C[C@H](Nc2nc(-c3nccn3C)nn3cc(-c4ccncc4)c(-c4ccccc4)c23)C1 [Compound 199, N-((1r,3r)-3-Methoxycyclobutyl)-2-(1-methyl-1H-imidazol-2-yl)-5-phenyl-6-(pyridin-4-yl)pyrrolo[2,1-f][1,2,4]triazin-4-amine]	> 1	A (1-25% inhibition)	75 to 100
COc1ccnc(Nc2nc(-c3nccn3C)nn3cc(-c4ccn(CCN)n4)c(C)c23)c1 [Compound 187, 6-(1-(2-Aminoethyl)-1H-pyrazol-3-yl)-N-(4-methoxypyridin-2-yl)-5-methyl-2-(1-methyl-1H-imidazol-2-yl)pyrrolo[2,1-f][1,2,4]triazin-4-amine]	> 1	C* (46-84% activation)	50 to 74
CO[C@H]1C[C@H](Nc2nc(-c3nccn3C)nn3cc(-c4ccc(OCCN)cc4)c(-c4ccccc4)c23)C1.Cl [Compound 208, 6-(4-(2-Aminoethoxy)phenyl)-N-((1r,3r)-3-methoxycyclobutyl)-2-(1-methyl-1H-imidazol-2-yl)-5-phenylpyrrolo[2,1-f][1,2,4]triazin-4-amine hydrochloride salt]	> 1	D* (85-100% activation)	75 to 100
COc1ccnc(Nc2nc(-c3nccn3CCNC(=O)CCCC[C@H]3SC[C@H]4NC(=O)N[C@H]43)nn3cc(-c4ccn(C)n4)c(C)c23)c1 [Compound 216, N-(2-(2-(4-((4-methoxypyridin-2-yl)amino)-5-methyl-6-(1-methyl-1H-pyrazol-3-yl)pyrrolo[2,1-f][1,2,4]triazin-2-yl)-1H-imidazol-1-yl)ethyl)-5-((3aR,4R,6aS)-2-oxohexahydro-1H-thieno[3,4-d]imidazol-4-yl)pentanamide]	> 1	A* (1-25% activation)	50 to 74
COc1ccnc(Oc2nc(-c3nccn3C)nn3cc(-c4ccn(C)n4)c(C)c23)c1 [Compound 220, 4-((4-Methoxypyridin-2-yl)oxy)-5-methyl-2-(1-methyl-1H-imidazol-2-yl)-6-(1-methyl-1H-pyrazol-3-yl)pyrrolo[2,1-f][1,2,4]triazine]	> 1	A (1-25% inhibition)	25 to 49

Continued, in another order:

IC50 [1] [µM]	Structure (SMILES)	% inh of Akt phosphorylation in Panc-1 (Akt phosphorylation)	inhibition (IL6) [%]
> 1	CO[C@H]1CC[C@H](Nc2nc(-c3nccn3C)nn3cc(-c4cccnc4)c(-c4ccccc4)c23)C1 (racemic) [Compound 194, rac N-((1S,3S)-3-Methoxycyclopentyl)-2-(1-methyl-1H-imidazol-2-yl)-5-phenyl-6-(pyridin-3-yl)pyrrolo[2,1-f][1,2,4]triazin-4-amine]	D* (85-100% activation)	75 to 100
> 1	CO[C@H]1CC[C@H](Nc2nc(-c3nccn3C)nn3cc(-c4ccn(C)n4)c(C(=O)NCC(F)(F)F)c23)C1 (racemic) [Compound 181, 4-(((1S,3S)-3-Methoxycyclopentyl)amino)-2-(1-methyl-1H-imidazol-2-yl)-6-(1-methyl-1H-pyrazol-3-yl)-N-(2,2,2-trifluoroethyl)pyrrolo[2,1-f][1,2,4]triazine-5-carboxamide]	B* (26-49% activation)	50 to 74
> 1	CO[C@H]1CC[C@@H](Nc2nc(-c3nccn3C)nn3cc(-c4ccncc4)c(-c4ccccc4)c23)C1 (racemic) [Compound 200, rac N-((1R,3S)-3-Methoxycyclopentyl)-2-(1-methyl-1H-imidazol-2-yl)-5-phenyl-6-(pyridin-4-yl)pyrrolo[2,1-f][1,2,4]triazin-4-amine]	B (26-49% inhibition)	1 to 24
< 0.15	Cc1c(-c2ccn(C)n2)cn2nc(-c3nccn3C)nc(Nc3ccc(OC(F)(F)F)cn3)c12 [Compound 232, 5-Methyl-2-(1-methyl-1H-imidazol-2-yl)-6-(1-methyl-1H-pyrazol-3-yl)-N-(5-(trifluoro-methoxy)pyridin-2-yl)pyrrolo[2,1-f][1,2,4]triazin-4-amine]	D* (85-100% activation)	25 to 49
< 0.15	Cc1c(-c2ccn(C)n2)cn2nc(-c3nccn3C)nc(Nc3ccc(N(C)C)cn3)c12 [Compound 227, N5,N5-Dimethyl-N2-(5-methyl-2-(1-methyl-1H-imidazol-2-yl)-6-(1-methyl-1H-pyrazol-3-yl)pyrrolo[2,1-f][1,2,4]triazin-4-yl)pyridine-2,5-diamine]	D* (85-100% activation)	50 to 74
< 0.15	COc1cc(Nc2nc(-c3nccn3C)nn3cc(-c4ccn(C)n4)c(C)c23)ncc1F [Compound 237, N-(5-Fluoro-4-methoxypyridin-2-yl)-5-methyl-2-(1-methyl-1H-imidazol-2-yl)-6-(1-methyl-1H-pyrazol-3-yl)pyrrolo[2,1-f][1,2,4]triazin-4-amine]	D* (85-100% activation)	0
< 0.15	Cc1ccc(Nc2nc(-c3nccn3C)nn3cc(-c4ccn(C)n4)c(C)c23)nc1 [Compound 226, 5-Methyl-2-(1-methyl-1H-imidazol-2-yl)-6-(1-methyl-1H-pyrazol-3-yl)-N-(5-methylpyridin-2-yl)pyrrolo[2,1-f][1,2,4]triazin-4-amine]	D* (85-100% activation)	50 to 74
0.51 to 1	COc1cccc(-c2cn3nc(-c4nccn4C)nc(N[C@H]4C[C@H](OC)C4)c3c2-c2ccccc2)c1OC [Compound 219, 6-(2,3-Dimethoxyphenyl)-N-((1r,3r)-3-methoxycyclobutyl)-2-(1-methyl-1H-imidazol-2-yl)-5-phenylpyrrolo[2,1-f][1,2,4]triazin-4-amine]	D (85-100% inhibition)	75 to 100
< 0.15	Cc1c(-c2ccn(C)n2)cn2nc(-c3nccn3C)nc(Nc3ccc(C(F)(F)F)cn3)c12 [Compound 233, 5-Methyl-2-(1-methyl-1H-imidazol-2-yl)-6-(1-methyl-1H-pyrazol-3-yl)-N-(5-(trifluoromethyl)pyridin-2-yl)pyrrolo[2,1-f][1,2,4]triazin-4-amine]	D* (85-100% activation)	25 to 49

Reference: patent US12459951B2, “Compounds that interact with RAS superfamily proteins for treatment of cancers, inflammatory diseases, rasopathies, and fibrotic disease” (SHY Therapeutics, LLC, priority 2022, dated 2025)
